Source: PubChem BioAssay (NCI)
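The compound was tested at five concentrations on cells cultured in 96-well plates, with a 48-hour exposure period. Definition used: TGI = concentration required for complete inhibition of growth.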

Key:
Experiment in all cases: NCI anticancer screen, dose series, 48 h
DMS 114 small cell lung = tested on: DMS 114 small cell lung
RXF-631 renal = tested on: RXF-631 renal
M19-MEL melanoma = tested on: M19-MEL melanoma
LXFL 529 NSCLC = tested on: LXFL 529 NSCLC
DMS 273 small cell lung = tested on: DMS 273 small cell lung
HOP-18 NSCLC = tested on: HOP-18 NSCLC

| SMILES | TGI (DMS 114 small cell lung) | TGI (RXF-631 renal) | TGI (M19-MEL melanoma) | TGI (LXFL 529 NSCLC) | TGI (DMS 273 small cell lung) | TGI (HOP-18 NSCLC) |
| --- | --- | --- | --- | --- | --- | --- |
| Cc1ccccc1NC(=O)CC(=O)N1N=C(N2c3ccccc3Sc3ccccc32)CC1c1ccccc1 (configuration not stated) | > 100 µM | > 100 µM | > 100 µM | > 100 µM | > 100 µM |  |
| CC(=O)Oc1ccc(CO)cc1OC(C)=O | > 100 µM | > 100 µM | > 100 µM | > 100 µM | > 100 µM | > 100 µM |
| COC1CC(CC2CCC(C)C(C(C)C(=O)O)O2)OC2(OC(C)(C3CCC(C)(C4OC(C5OC(O)(CO)C(C)CC5C)CC4C)O3)CC2C)C1C (configuration not stated) | 1.03 µM | 12.9 µM | 2.18 µM | 4.02 µM | 10.4 µM | 11.5 µM |
